According to ChEMBL document CHEMBL1131594, “Stereoisomers of cyclic urea HIV-1 protease inhibitors: synthesis and binding affinities” (J Med Chem, 1998):

Target: Human immunodeficiency virus type 1 protease (Human immunodeficiency virus 1, UniProt Q72874)
Test: Compound was tested for binding affinity against HIV-1 protease.

SMILES | Ki
O=C1N(Cc2ccccc2)[C@H](Cc2ccccc2)[C@H](O)[C@H](O)[C@H](Cc2ccccc2)N1Cc1ccccc1 | 250 nM
O=C1N(Cc2ccccc2)[C@H](Cc2ccccc2)[C@@H](O)[C@H](O)[C@@H](Cc2ccccc2)N1Cc1ccccc1 | 1350 nM
O=C1N(Cc2ccccc2)[C@H](Cc2ccccc2)[C@@H](O)[C@H](O)[C@H](Cc2ccccc2)N1Cc1ccccc1 | 6700 nM
O=C1N(Cc2ccccc2)[C@H](Cc2ccccc2)[C@H](O)[C@@H](O)[C@@H](Cc2ccccc2)N1Cc1ccccc1 | 3.6 nM
O=C1N(Cc2ccccc2)[C@@H](Cc2ccccc2)[C@@H](O)[C@H](O)[C@H](Cc2ccccc2)N1Cc1ccccc1 | 3810 nM
O=C1N(Cc2ccccc2)[C@@H](Cc2ccccc2)[C@H](O)[C@@H](O)[C@H](Cc2ccccc2)N1Cc1ccccc1 | 560 nM
O=C1N(Cc2ccccc2)[C@H](Cc2ccccc2)[C@H](O)[C@@H](O)[C@H](Cc2ccccc2)N1Cc1ccccc1 | 64 nM
O=C1N(Cc2ccccc2)[C@@H](Cc2ccccc2)[C@H](O)[C@H](O)[C@H](Cc2ccccc2)N1Cc1ccccc1 | 1710 nM
